Patent EP0245669B1, “Pharmaceutical preparation for preventing damage to living cells by free radicals, or for increasing the efficacy of organic sulphur compounds, and process for increasing the life span of isolated organs” (Medopharm Arzneimittelwerk Dr. Zillich GmbH & Co., priority 1986, dated 1987)

Columns and labels:
Mäuse = test: Toxicity of the zinc salts used as radiation protection agents (LD50); assay type: in vivo
Description: In diesem Beispiel wurde die Toxizität der als Strahlenschutzmittel eingesetzten Zinksalze getestet.
Der LD₅₀-Wert betrug für das Zinkaspartat 55 mg/kg Körpergewicht, für das Zinkchlorid 24 mg/kg Körpergewicht und für das Zinksulfat 45 mg/kg Körpergewicht.

weiblichen C3H Mäusen = test: Radiation protection: survival of mice after gamma irradiation (cobalt-60) following i.p. pretreatment; assay type: in vivo, Mäuse; conditions: for Ueberlebensrate nach Bestrahlung mit 9 Gy Anzahl / Ueberlebensrate nach Bestrahlung mit 10 Gy Anzahl / Ueberlebensrate nach Bestrahlung mit 11 Gy Anzahl / Ueberlebensrate nach Bestrahlung mit 12 Gy Anzahl / Ueberlebensrate nach Bestrahlung mit 13 Gy Anzahl: surviving/irradiated mice; for Ueberlebensrate in %: best result with zinc aspartate alone, 30 days after irradiation; for Ueberleben einer Bestrahlung von 14 Gy: zinc aspartate alone
Source text: In den nachfolgenden Beispielen wurde die synergistische Wirkung der durch die erfindungsgemässe Verwendung hergestellten pharmazeutischen Präparate mit organische Schwefelverbindungen enthaltenden Präparaten anhand des Strahlenschutzes getestet und es wurde auch die Strahlenschutzwirkung der Zinkionen enthaltenden Präparate mit bisher bekannten Strahlenschutzpräparaten an Mäusen getestet. Die Versuche wurden mit weiblichen C3H Mäusen (GL. Bomholtgard, Ry, Dänemark) durchgeführt, die 20 bis 22 g wogen. Die Mäuse wurden unter Bedingungen gehalten, wo sie so viel Standard-Nagetierfutter (Nafag Pellts) fressen und so viel Leitungswasser trinken können, wie sie wollten. Die Bestrahlung erfolgte mit Gammastrahlen aus einer Kobalt-60 Quelle. Es wurden unterschiedliche Bestrahlungen vorgenommen, und zwar mit 9 Gy, 10 Gy, 11 Gy, 12 Gy, 13 Gy und 14 Gy.
10 Minuten vor der Bestrahlung, 30 Minuten vor der Bestrahlung oder 120 Minuten vor der Bestrahlung wurde ein durch die erfindungsgemässe Verwendung hergestelltes synergistisch wirkendes pharmazeutisches Präparat, bzw. ein entsprechendes, Zinkionen enthaltendes Strahlenschutzpräparat oder ein aus dem Stand der Technik bekanntes Strahlenschutzpräparat zu Vergleichszwecken durch intraperitoneale Injektion verabreicht.
Bei der Gruppe der Mäuse zu Vergleichszwecken, die ohne Verabreichung eines Strahlenschutzpräparates bestrahlt wurden, erfolgte 10 Minuten vor der Bestrahlung die Verabreichung von destilliertem Wasser. Bei diesen unbehandelten Mäusen überlebten nur 50% der Tiere eine Bestrahlung von 8 Gy, d.h. der LD₅₀-Wert betrug 8 Gy.
Nach den Arbeitsweisen der vorangegangenen Beispiele 1 bis 4, wurden weitere Tests mit den genannten weiblichen Mäusen durchgeführt, und zwar unter Verwendung der angeführten Zinksalze. Die bei diesen Tests erzielten Ergebnisse sind in der nachfolgenden Tabelle I zusammengestellt. Für jede der angewandten Bestrahlungsstärken ist in der Rubrik "Anzahl" diejenige Anzahl der Mäuse angeführt, welche die Bestrahlung überlebten, geteilt durch die Gesamtzahl der Mäuse, welche bestrahlt wurden. Ein entsprechender Wert von 1/10 bedeutet also, dass von 10 bestrahlten Mäusen eine überlebt hatte. In der Spalte mit der Bezeichnung "Prozent", ist die Prozent-Ueberlebensrate angeführt. Bei einer überlebenden Maus pro 10 getesteten Mäusen beträgt diese Ueberlebensrate 10 %.
Zu Vergleichszwecken sind in der nachfolgenden Tabelle III die Ueberlebensraten von Mäusen zusammengestellt, die nach dem in Beispiel 5 beschriebenen Verfahren einer Vorbehandlung mit einem bekannten schwefelhaltigen Strahlenschutzmittel unterworfen worden waren. Orientierende Vorversuche hatten gezeigt, dass diese Strahlenschutzmittel bereits ihre Wirkung verloren hatten, wenn sie zwei Stunden vor der Einwirkung der Bestrahlung verabreicht worden waren. Die Bestrahlung wurde, wie aus der Tabelle ersichtlich ist, zwei Minuten nach der Verabreichung, in den meisten Fällen 10 Minuten nach der Verabreichung, aber auch 30 Minuten, bzw. 120 Minuten nach der Verabreichung durchgeführt. Die Werte deuten darauf hin, dass 30 Minuten nach der Verabreichung die Schutzwirkung schon wieder deutlich nachgelassen hat. Für jede Bestrahlungsstärke ist wiederum die Anzahl der Tiere angeführt, die nach 30 Tagen überlebt haben, geteilt durch die Gesamtzahl der Tiere, die behandelt und bestrahlt worden waren.
Anhand dieses Beispiels soll die synergistische Wirkung von Zinkionen und Schwefelverbindungen bezüglich eines Strahlenschutzes erläutert werden. Es wurde wieder in der gleichen Weise gearbeitet, wie in den vorangegangenen Beispielen 1 bis 3, bzw. 5, und es wurde auch die gleiche Art an weiblichen Mäusen getestet. Die Verabreichung der Zinkionen enthaltenden Lösung und der Lösung der Schwefelverbindung erfolgte entweder nacheinander oder gleichzeitig durch intraperitoneale Injektion.
In allen Fällen wurde die Ueberlebensrate 30 Tage nach der Einwirkung der Bestrahlung bestimmt.

[1] = Floersheim, Agents Actions 16, 580 (1985); cited from earlier work
[2] = 10 mg/kg i.p., 10 min before 9 Gy
[3] = 20 mg/kg i.p., 10 min before 9 Gy
[4] = 20 mg/kg i.p., 10 min before 10 Gy
[5] = 20 mg/kg i.p., 10 min before 11 Gy
[6] = 20 mg/kg i.p., 30 min before 9 Gy
[7] = 20 mg/kg i.p., 30 min before 10 Gy
[8] = 20 mg/kg i.p., 120 min before 9 Gy
[9] = 20 mg/kg i.p., 120 min before 10 Gy
[10] = 30 mg/kg i.p., 10 min before 9 Gy
[11] = 30 mg/kg i.p., 10 min before 10 Gy
[12] = 30 mg/kg i.p., 10 min before 11 Gy
[13] = 30 mg/kg i.p., 10 min before 12 Gy
[14] = 30 mg/kg i.p., 10 min before 13 Gy
[15] = 30 mg/kg i.p., 30 min before 9 Gy
[16] = 30 mg/kg i.p., 30 min before 10 Gy
[17] = 30 mg/kg i.p., 30 min before 11 Gy
[18] = 30 mg/kg i.p., 30 min before 12 Gy
[19] = 30 mg/kg i.p., 30 min before 13 Gy
[20] = 30 mg/kg i.p., 120 min before 9 Gy
[21] = 30 mg/kg i.p., 120 min before 10 Gy
[22] = 30 mg/kg i.p., 120 min before 11 Gy
[23] = 30 mg/kg i.p., 120 min before 12 Gy
[24] = 30 mg/kg i.p., 120 min before 13 Gy
[25] = 40 mg/kg i.p., 10 min before 9 Gy
[26] = 40 mg/kg i.p., 10 min before 10 Gy
[27] = 40 mg/kg i.p., 10 min before 11 Gy
[28] = 40 mg/kg i.p., 10 min before 12 Gy
[29] = 40 mg/kg i.p., 10 min before 13 Gy
[30] = 40 mg/kg i.p., 30 min before 9 Gy
[31] = 40 mg/kg i.p., 30 min before 10 Gy
[32] = 40 mg/kg i.p., 30 min before 11 Gy
[33] = 40 mg/kg i.p., 30 min before 12 Gy
[34] = 40 mg/kg i.p., 30 min before 13 Gy
[35] = 40 mg/kg i.p., 120 min before 9 Gy
[36] = 40 mg/kg i.p., 120 min before 10 Gy
[37] = 40 mg/kg i.p., 120 min before 11 Gy
[38] = 40 mg/kg i.p., 120 min before 12 Gy
[39] = 40 mg/kg i.p., 120 min before 13 Gy

## Zink-bis-(DL-hydrogenaspartat) [Zinkaspartat]
Mäuse
  LD₅₀-Wert: 55 mg/kg Körpergewicht
Weiblichen C3H Mäusen; [2]
  Ueberlebensrate nach Bestrahlung mit 9 Gy %: 10%
  Ueberlebensrate nach Bestrahlung mit 9 Gy Anzahl: 1/10
Weiblichen C3H Mäusen; [3]
  Ueberlebensrate nach Bestrahlung mit 9 Gy %: 67%
  Ueberlebensrate nach Bestrahlung mit 9 Gy Anzahl: 26/39
Weiblichen C3H Mäusen; [4]
  Ueberlebensrate nach Bestrahlung mit 10 Gy %: 29%
  Ueberlebensrate nach Bestrahlung mit 10 Gy Anzahl: 13/45
Weiblichen C3H Mäusen; [5]
  Ueberlebensrate nach Bestrahlung mit 11 Gy %: 0%
  Ueberlebensrate nach Bestrahlung mit 11 Gy Anzahl: 0/20
Weiblichen C3H Mäusen; [6]
  Ueberlebensrate nach Bestrahlung mit 9 Gy %: 60%
  Ueberlebensrate nach Bestrahlung mit 9 Gy Anzahl: 6/10
Weiblichen C3H Mäusen; [7]
  Ueberlebensrate nach Bestrahlung mit 10 Gy %: 0%
  Ueberlebensrate nach Bestrahlung mit 10 Gy Anzahl: 1/10
Weiblichen C3H Mäusen; [8]
  Ueberlebensrate nach Bestrahlung mit 9 Gy %: 50%
  Ueberlebensrate nach Bestrahlung mit 9 Gy Anzahl: 5/10
Weiblichen C3H Mäusen; [9]
  Ueberlebensrate nach Bestrahlung mit 10 Gy %: 0%
  Ueberlebensrate nach Bestrahlung mit 10 Gy Anzahl: 0/10
Weiblichen C3H Mäusen; [10]
  Ueberlebensrate nach Bestrahlung mit 9 Gy %: 88%
  Ueberlebensrate nach Bestrahlung mit 9 Gy Anzahl: 43/49
Weiblichen C3H Mäusen; [11]
  Ueberlebensrate nach Bestrahlung mit 10 Gy %: 74^+ %
  Ueberlebensrate nach Bestrahlung mit 10 Gy Anzahl: 43/58
Weiblichen C3H Mäusen; [12]
  Ueberlebensrate nach Bestrahlung mit 11 Gy %: 10%
  Ueberlebensrate nach Bestrahlung mit 11 Gy Anzahl: 3/30
Weiblichen C3H Mäusen; [13]
  Ueberlebensrate nach Bestrahlung mit 12 Gy %: 3%
  Ueberlebensrate nach Bestrahlung mit 12 Gy Anzahl: 1/30
Weiblichen C3H Mäusen; [14]
  Ueberlebensrate nach Bestrahlung mit 13 Gy %: 0%
  Ueberlebensrate nach Bestrahlung mit 13 Gy Anzahl: 0/20
Weiblichen C3H Mäusen; [15]
  Ueberlebensrate nach Bestrahlung mit 9 Gy %: 80%
  Ueberlebensrate nach Bestrahlung mit 9 Gy Anzahl: 8/10
Weiblichen C3H Mäusen; [16]
  Ueberlebensrate nach Bestrahlung mit 10 Gy %: 70%
  Ueberlebensrate nach Bestrahlung mit 10 Gy Anzahl: 21/30
Weiblichen C3H Mäusen; [17]
  Ueberlebensrate nach Bestrahlung mit 11 Gy %: 60%
  Ueberlebensrate nach Bestrahlung mit 11 Gy Anzahl: 24/40
Weiblichen C3H Mäusen; 30 mg/kg i.p., 30 min before 11 Gy, listed as Zink-aspartat
  Ueberlebensrate nach Bestrahlung mit 11 Gy %: 60^+ %
Weiblichen C3H Mäusen; [18]
  Ueberlebensrate nach Bestrahlung mit 12 Gy %: 57%
  Ueberlebensrate nach Bestrahlung mit 12 Gy Anzahl: 17/30
Weiblichen C3H Mäusen; 30 mg/kg i.p., 30 min before 12 Gy, listed as Zink-aspartat
  Ueberlebensrate nach Bestrahlung mit 12 Gy %: 57^+ %
Weiblichen C3H Mäusen; [19]
  Ueberlebensrate nach Bestrahlung mit 13 Gy %: 17%
  Ueberlebensrate nach Bestrahlung mit 13 Gy Anzahl: 5/30
Weiblichen C3H Mäusen; [20]
  Ueberlebensrate nach Bestrahlung mit 9 Gy %: 90^+ %
  Ueberlebensrate nach Bestrahlung mit 9 Gy Anzahl: 9/10
Weiblichen C3H Mäusen; [21]
  Ueberlebensrate nach Bestrahlung mit 10 Gy %: 40%
  Ueberlebensrate nach Bestrahlung mit 10 Gy Anzahl: 8/20
Weiblichen C3H Mäusen; [22]
  Ueberlebensrate nach Bestrahlung mit 11 Gy %: 53%
  Ueberlebensrate nach Bestrahlung mit 11 Gy Anzahl: 16/30
Weiblichen C3H Mäusen; [23]
  Ueberlebensrate nach Bestrahlung mit 12 Gy %: 35%
  Ueberlebensrate nach Bestrahlung mit 12 Gy Anzahl: 7/20
Weiblichen C3H Mäusen; [24]
  Ueberlebensrate nach Bestrahlung mit 13 Gy %: 14%
  Ueberlebensrate nach Bestrahlung mit 13 Gy Anzahl: 4/29
Weiblichen C3H Mäusen; [25]
  Ueberlebensrate nach Bestrahlung mit 9 Gy %: 59%
  Ueberlebensrate nach Bestrahlung mit 9 Gy Anzahl: 17/29
Weiblichen C3H Mäusen; [26]
  Ueberlebensrate nach Bestrahlung mit 10 Gy %: 55%
  Ueberlebensrate nach Bestrahlung mit 10 Gy Anzahl: 16/29
Weiblichen C3H Mäusen; [27]
  Ueberlebensrate nach Bestrahlung mit 11 Gy %: 3%
  Ueberlebensrate nach Bestrahlung mit 11 Gy Anzahl: 1/40
Weiblichen C3H Mäusen; [28]
  Ueberlebensrate nach Bestrahlung mit 12 Gy %: 17%
  Ueberlebensrate nach Bestrahlung mit 12 Gy Anzahl: 5/30
Weiblichen C3H Mäusen; [29]
  Ueberlebensrate nach Bestrahlung mit 13 Gy %: 5%
  Ueberlebensrate nach Bestrahlung mit 13 Gy Anzahl: 1/19
Weiblichen C3H Mäusen; [30]
  Ueberlebensrate nach Bestrahlung mit 9 Gy %: 45%
  Ueberlebensrate nach Bestrahlung mit 9 Gy Anzahl: 9/20
Weiblichen C3H Mäusen; [31]
  Ueberlebensrate nach Bestrahlung mit 10 Gy %: 70%
  Ueberlebensrate nach Bestrahlung mit 10 Gy Anzahl: 7/10
Weiblichen C3H Mäusen; [32]
  Ueberlebensrate nach Bestrahlung mit 11 Gy %: 50%
  Ueberlebensrate nach Bestrahlung mit 11 Gy Anzahl: 5/10
Weiblichen C3H Mäusen; [33]
  Ueberlebensrate nach Bestrahlung mit 12 Gy %: 30%
  Ueberlebensrate nach Bestrahlung mit 12 Gy Anzahl: 3/10
Weiblichen C3H Mäusen; [34]
  Ueberlebensrate nach Bestrahlung mit 13 Gy %: 24^+ %
  Ueberlebensrate nach Bestrahlung mit 13 Gy Anzahl: 7/29
Weiblichen C3H Mäusen; [35]
  Ueberlebensrate nach Bestrahlung mit 9 Gy %: 50%
  Ueberlebensrate nach Bestrahlung mit 9 Gy Anzahl: 5/10
Weiblichen C3H Mäusen; [36]
  Ueberlebensrate nach Bestrahlung mit 10 Gy %: 50%
  Ueberlebensrate nach Bestrahlung mit 10 Gy Anzahl: 5/10
Weiblichen C3H Mäusen; [37]
  Ueberlebensrate nach Bestrahlung mit 11 Gy %: 10%
  Ueberlebensrate nach Bestrahlung mit 11 Gy Anzahl: 1/10
Weiblichen C3H Mäusen; [38]
  Ueberlebensrate nach Bestrahlung mit 12 Gy %: 0%
  Ueberlebensrate nach Bestrahlung mit 12 Gy Anzahl: 0/10
Weiblichen C3H Mäusen; [39]
  Ueberlebensrate nach Bestrahlung mit 13 Gy %: 5%
  Ueberlebensrate nach Bestrahlung mit 13 Gy Anzahl: 1/19
Weiblichen C3H Mäusen; 8 Gy
  Ueberlebensrate in %: 100%
Weiblichen C3H Mäusen; 9 Gy
  Ueberlebensrate in %: 90%
Weiblichen C3H Mäusen; 10 Gy
  Ueberlebensrate in %: 74%
Weiblichen C3H Mäusen; 11 Gy
  Ueberlebensrate in %: 60%
Weiblichen C3H Mäusen; 12 Gy
  Ueberlebensrate in %: 57%
Weiblichen C3H Mäusen; 13 Gy
  Ueberlebensrate in %: 24%
Weiblichen C3H Mäusen; 14 Gy
  Ueberlebensrate in %: 0%
Weiblichen C3H Mäusen; comparison with Zinkchlorid and Zinksulfat
  Strahlenschutzwirkung: Besonders vorteilhaft
Weiblichen C3H Mäusen; 20 mg/kg body weight, 14 Gy
  Ueberleben einer Bestrahlung von 14 Gy: nicht überlebten
Weiblichen C3H Mäusen; 30 mg/kg body weight, 14 Gy
  Ueberleben einer Bestrahlung von 14 Gy: nicht überlebten
[1]
  akute Toxizität von Aethanol: vermindert
